Results: publication PMC5773580, “A synthetic combinatorial approach to disabling deviant Hedgehog signaling” (Scientific Reports, 2018)
pIC50: −log10 of the molar value. Values joined by “and” are separate entries in the source; they are usually repeats but may differ in a detail not shown here. Equal entries are not always repeated.

Key:
[1] = system: GLI1 binding to DNA in RMS13 cells; assay: GLI DNA binding assay (biotinylated oligo pulldown); assay type: cell-based; conditions: lysate of RMS13 cells treated 48 hrs
Protocol: A detailed protocol for DNA binding assay was previously described. Briefly, cells treated for 48 hrs with compounds were lysed in 1% NP40/phosphate buffered saline/protease inhibitors and cleared using a microcentrifuge. The lysate was then incubated with 0.5 µM of double-strand biotinylated oligonucleotides and 40 µl streptavidin-agarose bead suspension (Thermo Scientific, 20349) for 2 hrs. The streptavidin agarose beads are washed (3X) with 1% NP40/phosphate buffered saline/protease inhibitors and eluted with 2X Laemmli sample buffer. The supernatants are separated on SDS-PAGE and analyzed using western blotting. Antibodies were purchased from the following vendors: GLI1 (Cell Signaling Technology, #2534) and actin (SIGMA, #A5441).

HDAC6 = target: T1, HDAC6 (Homo sapiens, UniProt Q9UBN7); assay: In vitro HDAC profiling (deacetylation assay), HDAC6; assay type: biochemical; conditions: for HDAC Activity (Fluorescent counts): Repeat1/Repeat 2
T1 construct: purchased BPS Bioscience #50051-11
T1 sequence (Q9UBN7 1-1215): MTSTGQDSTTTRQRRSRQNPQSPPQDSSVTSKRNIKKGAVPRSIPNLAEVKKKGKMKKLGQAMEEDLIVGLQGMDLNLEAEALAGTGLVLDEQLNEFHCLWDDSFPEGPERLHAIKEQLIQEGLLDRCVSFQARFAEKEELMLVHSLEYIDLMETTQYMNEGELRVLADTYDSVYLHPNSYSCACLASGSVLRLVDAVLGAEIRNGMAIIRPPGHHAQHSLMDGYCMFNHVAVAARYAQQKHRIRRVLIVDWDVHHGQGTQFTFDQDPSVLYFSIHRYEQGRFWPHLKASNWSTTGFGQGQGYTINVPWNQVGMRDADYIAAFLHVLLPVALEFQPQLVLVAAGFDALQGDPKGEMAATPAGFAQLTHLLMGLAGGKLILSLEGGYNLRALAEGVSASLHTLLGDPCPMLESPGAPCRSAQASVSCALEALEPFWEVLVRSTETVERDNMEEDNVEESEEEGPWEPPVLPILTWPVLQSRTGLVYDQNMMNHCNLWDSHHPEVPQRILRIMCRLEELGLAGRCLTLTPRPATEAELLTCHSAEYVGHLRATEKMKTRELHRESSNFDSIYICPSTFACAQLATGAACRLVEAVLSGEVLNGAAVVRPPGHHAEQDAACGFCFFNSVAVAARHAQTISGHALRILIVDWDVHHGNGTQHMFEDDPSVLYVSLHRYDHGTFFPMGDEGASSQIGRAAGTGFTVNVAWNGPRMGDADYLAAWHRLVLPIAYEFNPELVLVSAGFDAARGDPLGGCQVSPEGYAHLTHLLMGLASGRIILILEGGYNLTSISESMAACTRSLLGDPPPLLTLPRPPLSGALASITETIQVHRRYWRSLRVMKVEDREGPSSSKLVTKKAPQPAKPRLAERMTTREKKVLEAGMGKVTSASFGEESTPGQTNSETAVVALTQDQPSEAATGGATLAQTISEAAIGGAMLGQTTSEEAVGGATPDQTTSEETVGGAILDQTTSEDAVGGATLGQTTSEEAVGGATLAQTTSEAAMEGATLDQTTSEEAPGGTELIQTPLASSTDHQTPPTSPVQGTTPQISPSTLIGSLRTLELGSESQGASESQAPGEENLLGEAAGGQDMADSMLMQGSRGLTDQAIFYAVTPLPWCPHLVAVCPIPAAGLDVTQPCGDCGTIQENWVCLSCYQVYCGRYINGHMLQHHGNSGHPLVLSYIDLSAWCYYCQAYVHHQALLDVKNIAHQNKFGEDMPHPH
Protocol: HDAC profiling was performed at BPS Bioscience (San Diego, CA). All of the compounds are dissolved in DMSO. A series of dilutions of the compounds were prepared with 10% DMSO in HDAC assay buffer (#50031) and 5 µl of the dilution was added to a 50 µl reaction so that the final concentration of DMSO is 1% in all of reactions. All of the enzymatic reactions were conducted in duplicate at 37 °C for 30 mins, except that the enzyme reactions for HDAC11 were at room temperature for 3 hrs. All of the reactions were performed in a 50 µl mixture containing HDAC assay buffer, 5 µg BSA, an HDAC substrate [HDAC Substrate 3 (BPS number 50037) or HDAC Class 2a Substrate 1 (BPS number 50040)], an HDAC enzyme (#50051-11) and a test compound. After enzymatic reactions, 50 μl of HDAC Developer (#50030) was added to each well and the plate was incubated at room temperature for an additional 20 mins. Fluorescence intensity was measured at an excitation of 360 nm and an emission of 460 nm using a Tecan Infinite M1000 microplate reader. HDAC activity assays were performed in duplicates at each concentration. The fluorescent intensity data were analyzed using the computer software, Graphpad Prism. In the absence of the compound, the fluorescent intensity (Ft) in each data set was defined as 100% activity. In the absence of HDAC, the fluorescent intensity (Fb) in each data set was defined as 0% activity. The percent activity in the presence of each compound was calculated according to the following equation: %activity = (F − Fb)/(Ft − Fb), where F = the fluorescent intensity in the presence of the compound. The values of % activity versus a series of compound concentrations were then plotted using non-linear regression analysis of Sigmoidal dose-response curve generated with the equation Y = B + (T − B)/1 + 10((LogIC50 − X) × Hill Slope), where Y = percent activity, B = minimum percent activity, T = maximum percent activity, X = logarithm of compound and Hill Slope = slope factor or Hill coefficient. The IC50 value was determined by the concentration causing a half-maximal percent activity.

- pIC50 (HDAC6; in vitro deacetylation assay, duplicates): 7.33
Structure (SMILES): O=C(CCCCCCC(=O)Nc1ccc(Cl)c(C(=O)Nc2ccc(NC(=O)c3cc(Cl)ccc3Cl)cc2)c1)NO [IHR-SAHA]
- GLI1 binding to immobilized oligos with consensus GLI binding sequence [1]: loss of GLI1 binding
- HDAC Activity (Fluorescent counts) (HDAC6; HDAC6, WW01 0 Log nM): 17916 Fluorescent counts and 17639 Fluorescent counts
- HDAC Activity (Fluorescent counts) (HDAC6; HDAC6, WW01 0.5 Log nM): 16713 Fluorescent counts and 17763 Fluorescent counts
- HDAC Activity (Fluorescent counts) (HDAC6; HDAC6, WW01 1 Log nM): 14605 Fluorescent counts and 14491 Fluorescent counts
- HDAC Activity (Fluorescent counts) (HDAC6; HDAC6, WW01 1.5 Log nM): 11120 Fluorescent counts and 11971 Fluorescent counts
- HDAC Activity (Fluorescent counts) (HDAC6; HDAC6, WW01 2 Log nM): 7800 Fluorescent counts and 7793 Fluorescent counts
- HDAC Activity (Fluorescent counts) (HDAC6; HDAC6, WW01 2.5 Log nM): 5185 Fluorescent counts and 5345 Fluorescent counts
- HDAC Activity (Fluorescent counts) (HDAC6; HDAC6, WW01 3 Log nM): 4209 Fluorescent counts and 4174 Fluorescent counts
- HDAC Activity (Fluorescent counts) (HDAC6; HDAC6, WW01 3.5 Log nM): 3548 Fluorescent counts and 3756 Fluorescent counts
- HDAC Activity (Fluorescent counts) (HDAC6; HDAC6, WW01 4 Log nM): 3616 Fluorescent counts and 3660 Fluorescent counts
- HDAC Activity (Fluorescent counts) (HDAC6; HDAC6, WW01 -0.5 Log nM): 18352 Fluorescent counts and 17865 Fluorescent counts
